Data taken from the Kinase Knowledgebase extract (Sharma et al. 2016).

Biological target: ROCK1;ROCK2 (UniProt O75116)
Assay: Inhibition of ROCK Kinase Activity

Chain of ROCK1;ROCK2 (O75116 whole entry, looked up): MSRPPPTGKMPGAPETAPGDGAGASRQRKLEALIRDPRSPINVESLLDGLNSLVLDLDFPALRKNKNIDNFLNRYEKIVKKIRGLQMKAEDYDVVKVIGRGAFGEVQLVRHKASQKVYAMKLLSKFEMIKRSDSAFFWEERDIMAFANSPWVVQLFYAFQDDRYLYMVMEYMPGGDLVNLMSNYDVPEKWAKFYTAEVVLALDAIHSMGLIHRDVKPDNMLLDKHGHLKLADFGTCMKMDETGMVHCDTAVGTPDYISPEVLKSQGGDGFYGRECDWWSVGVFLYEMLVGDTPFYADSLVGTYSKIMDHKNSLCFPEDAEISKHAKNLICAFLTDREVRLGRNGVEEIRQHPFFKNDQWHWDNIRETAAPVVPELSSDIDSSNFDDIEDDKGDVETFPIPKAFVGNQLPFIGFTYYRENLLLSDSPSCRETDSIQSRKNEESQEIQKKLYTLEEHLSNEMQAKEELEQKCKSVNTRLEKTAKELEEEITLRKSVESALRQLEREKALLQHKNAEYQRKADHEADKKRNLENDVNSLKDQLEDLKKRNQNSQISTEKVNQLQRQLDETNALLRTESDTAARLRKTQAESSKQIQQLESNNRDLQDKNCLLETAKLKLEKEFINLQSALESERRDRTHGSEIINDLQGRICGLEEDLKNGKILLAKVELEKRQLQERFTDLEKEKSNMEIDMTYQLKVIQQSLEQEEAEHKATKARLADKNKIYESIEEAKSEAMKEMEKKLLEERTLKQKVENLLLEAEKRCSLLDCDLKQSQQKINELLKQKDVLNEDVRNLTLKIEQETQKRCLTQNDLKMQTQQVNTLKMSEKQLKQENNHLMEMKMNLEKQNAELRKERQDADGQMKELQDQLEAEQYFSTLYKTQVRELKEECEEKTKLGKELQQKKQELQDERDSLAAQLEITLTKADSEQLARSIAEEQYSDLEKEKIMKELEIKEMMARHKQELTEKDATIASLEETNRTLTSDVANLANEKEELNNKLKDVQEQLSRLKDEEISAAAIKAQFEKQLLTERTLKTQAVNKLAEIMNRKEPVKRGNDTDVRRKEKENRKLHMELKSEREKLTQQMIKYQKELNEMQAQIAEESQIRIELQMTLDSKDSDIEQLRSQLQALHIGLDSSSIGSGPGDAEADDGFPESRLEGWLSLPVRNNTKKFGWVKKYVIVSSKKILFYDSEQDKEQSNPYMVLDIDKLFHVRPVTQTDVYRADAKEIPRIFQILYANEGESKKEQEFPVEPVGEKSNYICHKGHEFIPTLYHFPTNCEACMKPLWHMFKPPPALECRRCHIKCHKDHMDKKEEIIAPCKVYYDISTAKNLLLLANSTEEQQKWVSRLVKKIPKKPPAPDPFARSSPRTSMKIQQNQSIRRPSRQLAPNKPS

Row | Ki [µM] | SMILES
1 | ≤ 2 | COc1cccc(CC(=O)Nc2ccc3c(c2)C(=O)NC3=O)c1
2 | ≤ 2 | O=C(CNc1cccc(F)c1)Nc1ccc2c(c1)C(=O)NC2=O
3 | ≤ 2 | O=C(Cc1cccc(F)c1)Nc1ccc2c(c1)C(=O)NC2=O
4 | ≤ 2 | O=C(Cc1cc(F)cc(F)c1F)Nc1ccc2c(c1)C(=O)NC2=O
5 | ≤ 2 | O=C(Cc1ccccc1Cl)Nc1ccc2c(c1)C(=O)NC2=O
6 | ≤ 2 | O=C(CSc1cccc(Cl)c1Cl)Nc1ccc2c(c1)C(=O)NC2=O
7 | ≤ 2 | O=C(Cc1cc(Cl)ccc1F)Nc1ccc2c(c1)C(=O)NC2=O
8 | ≤ 2 | O=C(Cc1ccccc1F)Nc1ccc2c(c1)C(=O)NC2=O
9 | ≤ 2 | O=C(CSc1ccc(F)cc1F)Nc1ccc2c(c1)C(=O)NC2=O
10 | ≤ 2 | O=C(Cc1ccc(F)cc1F)Nc1ccc2c(c1)C(=O)NC2=O
11 | ≤ 2 | O=C(Cc1ccc(F)cc1Cl)Nc1ccc2c(c1)C(=O)NC2=O
12 | ≤ 2 | O=C(CSc1ccccc1F)Nc1ccc2c(c1)C(=O)NC2=O
13 | ≤ 2 | O=C(CSc1ccc(F)c(Cl)c1)Nc1ccc2c(c1)C(=O)NC2=O
14 | ≤ 2 | COc1ccc(CC(=O)Nc2ccc3c(c2)C(=O)NC3=O)cc1
15 | ≤ 2 | O=C(Cc1cccc(Cl)c1)Nc1ccc2c(c1)C(=O)NC2=O
16 | ≤ 2 | O=C(Cc1ccc(F)cc1)Nc1ccc2c(c1)C(=O)NC2=O
17 | ≤ 2 | O=C(Cc1ccc(Cl)cc1)Nc1ccc2c(c1)C(=O)NC2=O
18 | ≤ 2 | O=C(Cc1cccc(F)c1F)Nc1ccc2c(c1)C(=O)NC2=O
19 | ≤ 2 | O=C(Cc1ccc2c(c1)OCO2)Nc1ccc2c(c1)C(=O)NC2=O
20 | ≤ 2 | O=C(Cc1cc(F)ccc1F)Nc1ccc2c(c1)C(=O)NC2=O
21 | ≤ 2 | O=C(CNc1ccc(F)c(Cl)c1)Nc1ccc2c(c1)C(=O)NC2=O
22 | ≤ 2 | O=C(Cc1cccc(C(F)(F)F)c1F)Nc1ccc2c(c1)C(=O)NC2=O
23 | ≤ 2 | O=C(Cc1ccc(Cl)c(Cl)c1)Nc1ccc2c(c1)C(=O)NC2=O
24 | ≤ 2 | O=C(Cc1cc(F)c(Cl)cc1Cl)Nc1ccc2c(c1)C(=O)NC2=O
25 | ≤ 2 | O=C(Cc1cccc(C(F)(F)F)c1)Nc1ccc2c(c1)C(=O)NC2=O
26 | ≤ 2 | O=C(Cc1cccc(O)c1)Nc1ccc2c(c1)C(=O)NC2=O

Further lines, the compound ahead of its results:

Row | SMILES | Ki [µM]
27 | O=C(CCc1ccccc1)Nc1ccc2c(c1)C(=O)NC2=O | ≤ 2
28 | O=C(CSc1ccc(F)cc1)Nc1ccc2c(c1)C(=O)NC2=O | ≤ 2
29 | O=C(CSc1cccc(O)c1)Nc1ccc2c(c1)C(=O)NC2=O | ≤ 2
30 | COc1ccc(NCC(=O)Nc2ccc3c(c2)C(=O)NC3=O)cc1Cl | ≤ 2
31 | O=C(CSc1cccc2ccccc12)Nc1ccc2c(c1)C(=O)NC2=O | ≤ 2
32 | CC(Oc1ccccc1)C(=O)Nc1ccc2c(c1)C(=O)NC2=O (stereo not given) | ≤ 2
33 | O=C(CSc1cccc(Br)c1)Nc1ccc2c(c1)C(=O)NC2=O | ≤ 2
34 | Cc1ccc(SCC(=O)Nc2ccc3c(c2)C(=O)NC3=O)c(C)c1 | ≤ 2
35 | Cc1ccc(SCC(=O)Nc2ccc3c(c2)C(=O)NC3=O)cc1 | ≤ 2
36 | O=C(CSc1ccccc1C(F)(F)F)Nc1ccc2c(c1)C(=O)NC2=O | ≤ 2
37 | O=C(CNc1cccc(Cl)c1)Nc1ccc2c(c1)C(=O)NC2=O | ≤ 2
38 | O=C(CNc1cccc(OCc2ccccc2)c1)Nc1ccc2c(c1)C(=O)NC2=O | ≤ 2
39 | Cc1cccc(NCC(=O)Nc2ccc3c(c2)C(=O)NC3=O)c1 | ≤ 2
40 | O=C(Cc1cc2c(cc1Cl)OCO2)Nc1ccc2c(c1)C(=O)NC2=O | ≤ 2
41 | O=C(CSc1cccc(Cl)c1)Nc1ccc2c(c1)C(=O)NC2=O | ≤ 2
42 | Cc1ccc(OCC(=O)Nc2ccc3c(c2)C(=O)NC3=O)cc1 | ≤ 2
43 | COc1cccc(NCC(=O)Nc2ccc3c(c2)C(=O)NC3=O)c1 | ≤ 2
44 | O=C(CNc1cccc2[nH]ccc12)Nc1ccc2c(c1)C(=O)NC2=O | ≤ 2
45 | Cc1ccc(NCC(=O)Nc2ccc3c(c2)C(=O)NC3=O)c(C)c1 | ≤ 2
46 | COc1cccc(OCC(=O)Nc2ccc3c(c2)C(=O)NC3=O)c1 | ≤ 2
47 | Cc1cc(C)cc(SCC(=O)Nc2ccc3c(c2)C(=O)NC3=O)c1 | ≤ 2
48 | O=C(CSc1ccccc1Cl)Nc1ccc2c(c1)C(=O)NC2=O | ≤ 2
49 | O=C(COc1ccc(Cl)cc1)Nc1ccc2c(c1)C(=O)NC2=O | ≤ 2
50 | O=C(COc1ccccc1)Nc1ccc2c(c1)C(=O)NC2=O | ≤ 2
51 | O=C(CSc1ccc(Cl)cc1Cl)Nc1ccc2c(c1)C(=O)NC2=O | ≤ 2
52 | Cc1ccccc1NCC(=O)Nc1ccc2c(c1)C(=O)NC2=O | ≤ 2
53 | O=C(CSc1ccccc1)Nc1ccc2c(c1)C(=O)NC2=O | ≤ 2
54 | O=C(CNc1cccc2c1CCCC2)Nc1ccc2c(c1)C(=O)NC2=O | ≤ 2
55 | O=C(CSc1ccc(Cl)c(Cl)c1)Nc1ccc2c(c1)C(=O)NC2=O | ≤ 2
